Experimental data from BindingDB's records for doi:10.1124/jpet.102.039867 (Institut De Recherches Servier, 2002).

molecular target: T1, Alpha-2C adrenergic receptor (Homo sapiens, UniProt P18825)
T1 sequence (P18825 whole entry): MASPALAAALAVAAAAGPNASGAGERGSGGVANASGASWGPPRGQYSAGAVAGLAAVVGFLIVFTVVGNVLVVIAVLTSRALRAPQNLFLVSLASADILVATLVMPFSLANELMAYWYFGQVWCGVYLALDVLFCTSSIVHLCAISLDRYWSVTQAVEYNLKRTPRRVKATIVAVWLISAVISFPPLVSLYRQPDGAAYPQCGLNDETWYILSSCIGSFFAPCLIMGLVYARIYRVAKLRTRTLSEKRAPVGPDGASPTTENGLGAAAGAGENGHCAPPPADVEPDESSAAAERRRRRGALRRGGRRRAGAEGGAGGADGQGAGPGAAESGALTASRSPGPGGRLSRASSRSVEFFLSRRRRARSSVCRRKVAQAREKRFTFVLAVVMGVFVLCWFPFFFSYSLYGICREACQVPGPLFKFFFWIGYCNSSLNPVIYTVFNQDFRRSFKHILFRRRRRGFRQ

Row | Structure (SMILES) | Ki [nM]
1 | C=CCN1CCc2nc(N)sc2CC1 [B-HT 920] | 42.7
2 | CCCNC1CCc2nc(N)sc2C1 (stereo not given) [Pramipexole] | > 10000
3 | CCN(CC)C(=O)N[C@H]1C[C@@H]2c3cccc4[nH]cc(c34)C[C@H]2N(C)C1 | 0.76
4 | Oc1ccc2[nH]cc(CCCCN3CC=C(c4ccccc4)CC3)c2c1 | 1.78
5 | C=CCN1CC(C(=O)N(CCCN(C)C)C(=O)NCC)CC2c3cccc4[nH]cc(c34)CC21 (stereo not given) [NSC_54746] | 22.4
6 | CCCN1C[C@H](CSC)C[C@@H]2c3cccc4[nH]cc(c34)C[C@H]21 [Permax] | 67.6
7 | CN1CCc2cccc3c2[C@H]1Cc1ccc(O)c(O)c1-3 [APOKYN] | 36.3
8 | CN(C)C1CCc2cc(O)c(O)cc2C1 (stereo not given) [(6,7-Dihydroxy-1,2,3,4-tetrahydro-naphthalen-2-yl)-dimethyl-ammonium] | 6.03
9 | CCCN1CCC[C@@H]2Cc3nc(N)ncc3C[C@H]21 [Quinerolane] | > 10000
10 | CCCN(CCC)CCc1cccc2c1CC(=O)N2 | 1200
